Measured values: US6906077B1, “Use of neurotrophic factor stimulators for the treatment of ophthalmic neurodegenerative diseases” (Alcon Manufacturing, Ltd., priority 1998, dated 2005)

B1: brain-derived neurotrophic factor (protein, UniProt P23560 19-247, looked up)
Neurotrophic factor BDNF …: APMKEANIRGQGGLAYPGVRTHGTLESVNGPKAGSRGLTSLADTFEHVIEELLDEDQKVRPNEENNKDADLYTSRVMLSSQVPLEPPLLFLLEEYKNYLDAANMSMRVRRHSDPARRGELSVCDSISEWVTAADKKTAVDMSGGTVTVLEKVPVSKGQLKQYFYETKCNPMGYTKEGCRGIDKRHWNSQCRTTQSYVRALTMDSKKRIGWRFIRIDTSCVCTLTIKRGR

Key:
[1] = system: RGCs (retinal ganglion cells); assay: Retinal Ganglion Cell Survival Assay (serum deprivation); format: cell-based, Neonatal, Sprague-Dawley rats; details: cultured without serum; Propentofylline 100 μM; 3 days after serum removal; survival with serum = 100%; mean and SEM (n = 6)
Description: Retinal Ganglion Cell Survival Assay:
Techniques for the isolation and culture of RGCs were adapted from those reported by Takahashi N. et al., Rat retinal ganglion cells in culture. Exp. Eye Res. volume 53, pages 565-572 (1991). […] Two to 4 days later, retina cells were dissociated. Cultured RGCs were identified by sufficient Di-I fluorescence to be observed visually using a fluorescent microscope.
Neonatal, Sprague-Dawley rats, 2-5 days old, were anesthetized by hypothermia, after which, a 2 mm midline opening was made in the scalp just caudal to the traverse sinus. The tip of the injection needle (30 gauge) was inserted 6 mm below the top of the skull, and a 5 μl Di-I solution, containing 3 mg/ml Di-I (1,1′-dioctadecyl-3,3,3′,3′-tetramethylindo-carbocyanine perchlorate (Molecular Probes, Eugene, Oreg.) in 90% ethanol and 10% dimethylsulfoxide, was injected. The wound was then covered with a drop of Flexible Collodion (Amend Drug & Chemical Co., Irvington, N.J.). Rats were returned to their mother after warming and recovery from anesthesia.
Two to 4 days after Di-I injection, rats were anesthetized by hypothermia and sacrificed by decapitation. Their eyes were enucleated and placed in Dulbecco's modified Eagle's medium: Nutrient mixture F12 (1:1; DMEM/F12, Gibco Co., Grand Island, N.Y.). The retina from each eye was detached and isolated. […]

axotomized RGCs = details: single intravitreal injection of 5 μg on Day 0; one week after; untreated retinas lost nearly half of the axotomized RGCs; cited from earlier work

Row | Molecule | RGC Survival (%) [1] [%] | survival of axotomized RGCs (axotomized RGCs)
1 | CCCn1cnc2c1c(=O)n(CCCCC(C)=O)c(=O)n2C [Propentofylline, propentofylline] | 96.9 ± 4.8 | 
2 | B1 |  | virtually all RGCs were present
